We go through 2 compounds from paper PMC10272112 (Nature Communications, 2023).

For data set [1] the following is noted: cited from earlier work.
Data set [2] relates to HeLa S3 cells. Put plainly: Global acetyl-lysine detection by Western blot. To be noted: for relative lysine acetylation vs DMSO: HeLa S3, 1 mM, 16 h, replicates A/B.
Protocol: HeLa S3 was grown in DMEM medium (PAN Biotech) supplemented with 10% FBS (PAN Biotech) and treated with drugs (final concentration of 0.1% DMSO) for indicated periods. […] The protein amount of cell lysates was determined by Bradford assay. […] Proteins were separated by SDS-PAGE and electro-transferred onto PVDF membranes. […] Acquisition and quantification of the band fluorescence intensities were carried out with the Odyssey (Licor) imaging system and corresponding software (v 3.0.29). Intensities of proteins were normalized to input beta-Actin and further normalized to the control treatments to calculate the relative acetylation change.
The subject of data set [3] is NCOR2 (Homo sapiens). The data set is described as follows: Chemoproteomic competition pulldown assay (co-competed NCoR partner). The data set is classed as binding. Particulars: iQ, SW620 lysate. The method, then:
(§1) To identify proteins directly bound by lipoic acid, we employed a chemoproteomic competition assay. Briefly, (R/S)-LA was immobilized on sepharose beads via an amidation reaction to form an affinity matrix (abbreviated as iL; Fig. 1a). This affinity matrix can be incubated with cell lysate to pull down potential LA or LM target proteins and identify these targets via bottom-up proteomics. In a competition assay, free LA or LM were incubated with lysate at different concentrations before pulling down and quantifying target proteins. […] (Fig. 1b, see “Methods” for details). […] The lysate buffer used in this assay contains 1 mM DTT to mimic the intracellular reductive milieu and to reduce lipoic acid and LM. […] Additional competition assays performed in lung adenocarcinoma cell A549 lysate also identified HDAC1, HDAC2, and HDAC6 as targets (Supplementary Fig. 1b). Amongst the three cell lines tested, HDACs were the only confidently identified targets across the 1500–3000 proteins quantified in these assays. […] We validated the results by analogous pulldown competition assays using two other affinity matrices prepared via the immobilization of either the HDAC inhibitor Quisinostat (iQ) and an analog of the class IIa HDAC inhibitor Bürli’s 31[14] (iC)[12]. We have previously shown that these affinity matrices specifically bind to the active sites of HDACs and have used them for HDACi selectivity profiling. Indeed, binding of (R/S)-LA and (R/S)-LM to HDAC1, HDAC2, HDAC3, HDAC6, and, to a lesser extent, HDAC8 was confirmed in these assays (Supplementary Fig. 1c, d). No binding to class IIa HDACs or the recently discovered common HDAC inhibitor off-target MBLAC2 was observed (Supplementary Fig. 1e)[12]. […] This observation might reflect electrostatic repulsion between the HDAC10 active site gate-keeper glutamic acid residues[15],[16] and the terminal carboxylic acid of LA.
(§2) To assess the degree of protein depletion from lysates by the affinity matrix, a second pulldown (PDPD) with fresh beads was performed using the unbound protein fraction from the vehicle control flow through. The beads were washed (1 × 1 mL of lysis buffer without inhibitors and only 0.4% Igepal, 2 × 2 mL of lysis buffer without inhibitors and only 0.2% Igepal), and captured proteins were denatured with 8 M urea buffer, alkylated with 55 mM chloroacetamide and digested with Trypsin according to standard procedures. The resulting peptides were desalted on a C18 filter plate (Sep-Pak® tC18 µElution Plate, Waters), vacuum dried, and stored at −20 °C until LC–MSMS measurement.
(§3) For the competition assays, relative binding was calculated based on the protein intensity ratio to the DMSO control for every single inhibitor concentration. EC50 values were derived from a four-parameter log-logistic regression with variable slope (constrain: bottom > 0). The obtained EC50 values were multiplied with a protein-dependent correction factor (cf), resulting in the apparent Kd value (Kd^app). The correction factor is determined by calculating the ratio of the protein intensity of two consecutive pulldowns of the vehicle control sample[13]. Targets of the inhibitors were annotated manually according to published procedures[12],[46],[47]. […] Additionally, the number of unique peptides and MSMS counts per condition were taken into account. Positive target binding across several independent experiments performed with different cell lysates further substantiated our confidence for a true positive drug-target binding event.

Data set [4] relates to A549 cells. Put plainly: Arsenite-induced stress granule formation (G3BP1 immunofluorescence). The data set is classed as cell-based. Particulars: for arsenite-induced stress granule quantification (G3BP1), Mean / arsenite-induced stress granule quantification (G3BP1), Median / arsenite-induced stress granule quantification (G3BP1), individual values: sheet 4b; for arsenite-induced stress granule quantification (G3BP1), individual values: single data points. The method, then: The acetylation status of proteins can affect their macromolecular associations and the tendency of proteins to phase-separate into liquid condensates such as stress granules. […] After pre-incubation of cells with the compound, stress granule formation was induced using 30 min of arsenite treatment (1 mM). After treatment, cells were fixed for immunofluorescence detection of stress granules via the common stress granule marker protein G3BP1[21].
0.03 × 10^6 A549 cells were seeded at 4-chamber slides (Thermo, Nunc) and cultured at 37 °C overnight. Cells were treated with HDAC inhibitor SAHA and Lipoic acid or LM for 6 h, followed by 1 mM Arsenite for 30 min. Cells were fixed by 4% PFA and permeabilized by 0.5% Triton X-100/PBS. 10% Goat serum in PBS was used for blocking. After manually selecting an area with cell confluency of 50–80%, 16 pictures were taken randomly around the central point (ZEISS software in-built function). Stress granule marker G3BP1 (Aviva Systems Biology, ARP37713_T100) was visualized and quantified by ImageJ. Statistical analysis was performed with GraphPad Prism.

Data set [5] relates to NCOR1 (Homo sapiens). Put plainly: Chemoproteomic competition pulldown assay (co-competed NCoR partner). Format: binding. To be noted: iQ, SW620 lysate. The method, then:
as §1, §2, §3

The mark [6] stands for this setting: HeLa S3, time-dependent treatment, 5 mM.

Molecules are shown by their SMILES. Several values for one entry are separate records, joined by “and”; a condition that tells them apart may be missing. Equal entries are not always repeated.

Chain of NCOR1 (Homo sapiens) (O15379 whole entry): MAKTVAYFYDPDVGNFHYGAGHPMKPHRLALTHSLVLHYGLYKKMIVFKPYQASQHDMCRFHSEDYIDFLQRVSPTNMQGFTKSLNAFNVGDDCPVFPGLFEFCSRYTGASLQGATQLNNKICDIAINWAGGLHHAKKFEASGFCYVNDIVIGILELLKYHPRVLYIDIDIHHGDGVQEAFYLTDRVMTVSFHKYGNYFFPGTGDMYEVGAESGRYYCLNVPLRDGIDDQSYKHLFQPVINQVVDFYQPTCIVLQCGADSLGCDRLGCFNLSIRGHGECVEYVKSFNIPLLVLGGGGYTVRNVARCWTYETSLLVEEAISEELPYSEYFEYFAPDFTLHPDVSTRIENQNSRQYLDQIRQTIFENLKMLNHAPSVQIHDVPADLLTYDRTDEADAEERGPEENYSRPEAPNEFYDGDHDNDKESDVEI
Chain of NCOR1 (Homo sapiens) (O75376 whole entry, further chain): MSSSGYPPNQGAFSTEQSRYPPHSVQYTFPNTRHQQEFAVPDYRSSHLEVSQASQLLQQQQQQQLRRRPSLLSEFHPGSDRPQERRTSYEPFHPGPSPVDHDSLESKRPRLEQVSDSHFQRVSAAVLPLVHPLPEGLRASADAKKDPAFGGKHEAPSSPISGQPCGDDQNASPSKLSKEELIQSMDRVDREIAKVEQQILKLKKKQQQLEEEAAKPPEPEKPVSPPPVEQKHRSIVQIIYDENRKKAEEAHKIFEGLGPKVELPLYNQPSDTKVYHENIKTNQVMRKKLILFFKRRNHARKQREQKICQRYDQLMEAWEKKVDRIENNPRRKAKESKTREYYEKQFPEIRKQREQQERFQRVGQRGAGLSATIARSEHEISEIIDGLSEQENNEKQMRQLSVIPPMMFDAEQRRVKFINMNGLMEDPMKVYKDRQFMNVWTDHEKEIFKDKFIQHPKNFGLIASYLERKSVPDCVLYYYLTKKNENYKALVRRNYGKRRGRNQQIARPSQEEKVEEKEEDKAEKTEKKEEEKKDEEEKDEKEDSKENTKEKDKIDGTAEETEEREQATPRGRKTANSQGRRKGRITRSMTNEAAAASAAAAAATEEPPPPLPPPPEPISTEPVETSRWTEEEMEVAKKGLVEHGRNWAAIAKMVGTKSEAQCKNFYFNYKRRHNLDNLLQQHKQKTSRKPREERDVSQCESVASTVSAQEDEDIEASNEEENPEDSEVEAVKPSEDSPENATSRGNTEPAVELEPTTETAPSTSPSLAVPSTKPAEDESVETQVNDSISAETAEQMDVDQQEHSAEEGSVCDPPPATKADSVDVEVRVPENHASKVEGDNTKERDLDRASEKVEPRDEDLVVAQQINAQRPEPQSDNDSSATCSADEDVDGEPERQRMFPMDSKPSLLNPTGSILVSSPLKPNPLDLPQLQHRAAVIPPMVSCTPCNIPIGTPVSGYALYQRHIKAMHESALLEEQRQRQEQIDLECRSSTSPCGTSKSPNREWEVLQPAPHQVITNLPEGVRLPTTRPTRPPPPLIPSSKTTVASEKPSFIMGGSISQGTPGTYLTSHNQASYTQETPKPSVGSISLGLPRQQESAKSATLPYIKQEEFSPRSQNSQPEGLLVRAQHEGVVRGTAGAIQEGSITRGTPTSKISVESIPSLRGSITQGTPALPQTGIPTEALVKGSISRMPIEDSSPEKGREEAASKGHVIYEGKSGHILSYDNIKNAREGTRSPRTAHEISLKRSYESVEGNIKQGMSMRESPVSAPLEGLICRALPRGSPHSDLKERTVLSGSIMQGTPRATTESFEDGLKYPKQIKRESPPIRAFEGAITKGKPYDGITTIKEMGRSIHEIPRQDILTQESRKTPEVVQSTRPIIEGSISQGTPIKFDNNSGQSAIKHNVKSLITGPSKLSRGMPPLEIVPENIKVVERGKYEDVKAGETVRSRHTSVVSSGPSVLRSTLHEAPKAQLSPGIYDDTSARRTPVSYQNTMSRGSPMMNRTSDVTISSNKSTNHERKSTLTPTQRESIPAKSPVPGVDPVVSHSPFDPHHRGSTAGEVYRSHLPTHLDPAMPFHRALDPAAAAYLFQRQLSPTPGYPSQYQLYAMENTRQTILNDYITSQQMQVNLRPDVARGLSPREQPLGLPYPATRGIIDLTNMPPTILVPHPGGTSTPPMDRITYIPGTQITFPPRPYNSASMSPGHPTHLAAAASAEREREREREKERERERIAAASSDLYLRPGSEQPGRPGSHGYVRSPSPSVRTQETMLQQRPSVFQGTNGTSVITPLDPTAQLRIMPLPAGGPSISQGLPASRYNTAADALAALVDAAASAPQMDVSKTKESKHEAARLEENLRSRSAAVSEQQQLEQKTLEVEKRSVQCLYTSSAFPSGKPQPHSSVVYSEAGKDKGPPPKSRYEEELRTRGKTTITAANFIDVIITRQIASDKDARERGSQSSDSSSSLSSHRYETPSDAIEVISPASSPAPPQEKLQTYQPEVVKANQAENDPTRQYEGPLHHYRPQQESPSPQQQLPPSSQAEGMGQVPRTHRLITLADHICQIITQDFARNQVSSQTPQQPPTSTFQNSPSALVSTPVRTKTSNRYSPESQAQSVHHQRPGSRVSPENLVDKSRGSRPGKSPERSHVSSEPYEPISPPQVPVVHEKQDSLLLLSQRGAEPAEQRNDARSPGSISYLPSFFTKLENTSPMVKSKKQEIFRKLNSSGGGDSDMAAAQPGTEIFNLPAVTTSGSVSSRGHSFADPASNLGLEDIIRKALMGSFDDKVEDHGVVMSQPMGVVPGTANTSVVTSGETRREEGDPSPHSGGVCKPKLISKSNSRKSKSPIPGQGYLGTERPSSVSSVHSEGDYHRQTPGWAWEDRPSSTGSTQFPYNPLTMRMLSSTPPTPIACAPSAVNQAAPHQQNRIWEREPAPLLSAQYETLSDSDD

Take `O=C(O)CCCCC1CCSS1` (racemic) [(R/S)-LA, (R/S)-lipoic acid]: the peak plasma concentrations in data set [1] (clinically relevant doses 600 to 2400 mg/day, orally and intravenously) was 100 to 500 µM. Besides, the peak plasma concentration result in data set [1] (in humans) is listed as “about 0.5 mM”. Also, the “relative lysine acetylation vs DMSO” value is 5.9571 and 6.0208 in data set [2] (10-12 kDa bands); 4.6853 and 4.9960 in data set [2] (14-16 kDa bands); 2.3477 and 2.3498 in data set [2] (21-23 kDa bands); 2.1045 and 2.1971 in data set [2] (24-26 kDa bands); 6.4530 and 6.1942 in data set [2] (49-51 kDa bands); 5.8639 and 5.7630 in data set [2] (65-73 kDa bands). In data set [2] (setting [6]), the “time of peak acetylation” value was in the range of 3 to 8 h. Moreover, in data set [2] (setting [6]), the “time to upregulation of acetylation on a broad range of proteins” value is recorded as no more than 1 h. Further, the “relative binding vs DMSO” value in data set [3] (log10 M -3.52288) worked out at 0; in data set [3] (log10 M -4) it was 0; in data set [3] (log10 M -4.52288), 0.568; in data set [3] (log10 M -5), 0.5133; in data set [3] (log10 M -5.52288), 0.9883; in data set [3] (log10 M -6), 0.9231. Further, the figures for the “relative binding vs DMSO” value in data set [3] (log10 M -6.52288) and in data set [3] (log10 M -7) were 1.028 and 1.032, respectively.

`NC(=O)CCCCC1CCSS1` (racemic) [(R/S)-LM, (R/S)-lipoamide]: the results for the “arsenite-induced stress granule quantification (G3BP1), Mean” value in data set [4] (LM 100 uM), in data set [4] (LM 300 uM) and in data set [4] (LM 1000 uM) were 50.8573, 32.0457 and 21.5611, respectively. For the same compound, the “arsenite-induced stress granule quantification (G3BP1), Median” value in data set [4] (LM 100 uM) stood at 45.1; in data set [4] (LM 300 uM), 30.3222; in data set [4] (LM 1000 uM), 21.7363. In addition, the “arsenite-induced stress granule quantification (G3BP1), individual values” in data set [4] (LM 100 uM) is 71 and 31.1875 and 45 and 63.6 and 40.5 and 81.5 and 35.3333 and 36 and 53.7143 and 35.8571 and 38.125 and 41.75 and 45.1 and 52.8 and 44.3 and 63.75 and 64.7778 and 49.1818 and 58.6 and 39.7273 and 76.2; in data set [4] (LM 300 uM) it was 24.4375 and 30.6667 and 27.6923 and 44.9286 and 34.8 and 39.0909 and 43.75 and 27.5454 and 17.65 and 28.1111 and 42.3 and 13.75 and 29.6842 and 28.3684 and 12.875 and 35.8333 and 25.5 and 35.3077 and 30.4444 and 43.6667 and 30.2 and 36.2308 and 27.3889 and 58.875; in data set [4] (LM 1000 uM) it was 28.8889 and 25.875 and 20.6667 and 21.6154 and 30.8182 and 26.2857 and 7.556 and 13.9375 and 25.5714 and 28 and 21.25 and 20 and 16.75 and 17 and 9.615 and 15.3 and 22.6191 and 29.6154 and 21.8571. Further, the “effect on stress granule numbers per cell” value in data set [4] (pre-incubation 6 h, then 1 mM arsenite 30 min) is on record as “dose-dependent reduction of stress granule numbers per cell”. The “relative binding vs DMSO” value in data set [5] (log10 M -3.52288) turned out to be 0.2142; in data set [5] (log10 M -4), 0.3668; in data set [5] (log10 M -4.52288) it was 0.5065; in data set [5] (log10 M -5), 0.4972; in data set [5] (log10 M -5.52288) it was 0.5554; in data set [5] (log10 M -6), 0.6839. Further, the “relative binding vs DMSO” value in data set [5] (log10 M -6.52288) amounted to 0.8502; in data set [5] (log10 M -7), 0.9007.
